Laboratory results from patent US9346832B2, “Gold complexes for use in the treatment of cancer” (University of Kwazulu-Natal, priority 2010, dated 2016).
Entries after “also recorded” stand apart in the source; their conditions may differ.

Tests used:
[1] = test system: human cancer cell lines; experiment: Cytotoxicity summary (NCI-60 or independent cytotoxicity screen), Scheme 19; type: cell-based
[2] = test system: 60 human cancer cell lines; experiment: NCI-60 five-dose screen, mean cytotoxicity over 60 human cancer cell lines; type: cell-based
Method: (§1) The gold(III) complexes of this invention were screened by the National Cancer Institute (NCI, USA) against their panel of 60 different human cancer cell lines. These screens initially entail a one-dose test for the compound at a high concentration (10 μM; e.g. FIGS. 5, 6 and 7). Compounds with a good cytotoxicity profile in the one-dose screen are then subjected to a five-dose screen for the full panel of sixty human cancer cell lines (the so-called 5-dose NCI-60 screen). In the full five-dose screen, the compound concentration is varied in five doses from 10^−8 M to 10^−4 M in order to establish a dose-response function of percentage cell growth versus the concentration of the test agent. […] Similar data will shortly be available for compounds 1.1Y^1b and 1.5Y^1a as these derivatives are in 5-dose screens currently at the NCI.
The mean cytotoxicity data summarized in Scheme 7 were compiled over 60 human cancer cell lines from the NCI database. […] The dose-response curves for the bis(pyrrolide-imine) chelates of the invention are steeper, or harder, than those of all the compounds compared in Scheme 7.

[3] = Genotoxicity
From the text: (§2) First, the compound is not genotoxic (i.e. mutagenic).

[4] = Hydrolysis in aqueous solution; type: physicochemical; conditions: aqueous / phosphate buffered aqueous solutions
From the text: This is why binding to DNA of the intact chelate occurs (FIGS. 14 and 20). However, it is noteworthy that hydrolysis of a Au(III)-Npyrrole bond is a reaction that may be catalyzed by enzymes in plasma and could account for the plasma instability of MA_AuPr.

[5] = Microsomal clearance; type: in vitro ADME; conditions: microsomes
From the text: as §2

[6] = test system: 60 human cancer cell lines; experiment: NCI-60 one-dose screen; type: cell-based; conditions: single dose 10 μM
Method: as §1
The results of one-dose NCI-60 screens are noteworthy and merit some discussion as they quickly indicate activity profiles, cell-line specificity, and general cytotoxicity for the test agents across multiple human cancer cell lines. FIGS. 5, 6, and 7 set out the one-dose screening results for MA_AuPr (FIG. 5), KA_AumacroPr (FIG. 6), and KA_AuMelmPr (FIG. 7) obtained by the NCI. These three compounds are the parent derivatives that are representative of the three new types of gold(III) Schiff base chelate relevant to this invention. All other compounds synthesized as part of this invention have been similarly analyzed.

[7] = biological target: topoisomerase II (Homo sapiens, UniProt P11388); experiment: Topoisomerase II DNA cleavage/relaxation assay, supercoiled plasmid DNA, EB gel (TopoGEN protocol); type: biochemical
Sequence of topoisomerase II (P11388 whole entry): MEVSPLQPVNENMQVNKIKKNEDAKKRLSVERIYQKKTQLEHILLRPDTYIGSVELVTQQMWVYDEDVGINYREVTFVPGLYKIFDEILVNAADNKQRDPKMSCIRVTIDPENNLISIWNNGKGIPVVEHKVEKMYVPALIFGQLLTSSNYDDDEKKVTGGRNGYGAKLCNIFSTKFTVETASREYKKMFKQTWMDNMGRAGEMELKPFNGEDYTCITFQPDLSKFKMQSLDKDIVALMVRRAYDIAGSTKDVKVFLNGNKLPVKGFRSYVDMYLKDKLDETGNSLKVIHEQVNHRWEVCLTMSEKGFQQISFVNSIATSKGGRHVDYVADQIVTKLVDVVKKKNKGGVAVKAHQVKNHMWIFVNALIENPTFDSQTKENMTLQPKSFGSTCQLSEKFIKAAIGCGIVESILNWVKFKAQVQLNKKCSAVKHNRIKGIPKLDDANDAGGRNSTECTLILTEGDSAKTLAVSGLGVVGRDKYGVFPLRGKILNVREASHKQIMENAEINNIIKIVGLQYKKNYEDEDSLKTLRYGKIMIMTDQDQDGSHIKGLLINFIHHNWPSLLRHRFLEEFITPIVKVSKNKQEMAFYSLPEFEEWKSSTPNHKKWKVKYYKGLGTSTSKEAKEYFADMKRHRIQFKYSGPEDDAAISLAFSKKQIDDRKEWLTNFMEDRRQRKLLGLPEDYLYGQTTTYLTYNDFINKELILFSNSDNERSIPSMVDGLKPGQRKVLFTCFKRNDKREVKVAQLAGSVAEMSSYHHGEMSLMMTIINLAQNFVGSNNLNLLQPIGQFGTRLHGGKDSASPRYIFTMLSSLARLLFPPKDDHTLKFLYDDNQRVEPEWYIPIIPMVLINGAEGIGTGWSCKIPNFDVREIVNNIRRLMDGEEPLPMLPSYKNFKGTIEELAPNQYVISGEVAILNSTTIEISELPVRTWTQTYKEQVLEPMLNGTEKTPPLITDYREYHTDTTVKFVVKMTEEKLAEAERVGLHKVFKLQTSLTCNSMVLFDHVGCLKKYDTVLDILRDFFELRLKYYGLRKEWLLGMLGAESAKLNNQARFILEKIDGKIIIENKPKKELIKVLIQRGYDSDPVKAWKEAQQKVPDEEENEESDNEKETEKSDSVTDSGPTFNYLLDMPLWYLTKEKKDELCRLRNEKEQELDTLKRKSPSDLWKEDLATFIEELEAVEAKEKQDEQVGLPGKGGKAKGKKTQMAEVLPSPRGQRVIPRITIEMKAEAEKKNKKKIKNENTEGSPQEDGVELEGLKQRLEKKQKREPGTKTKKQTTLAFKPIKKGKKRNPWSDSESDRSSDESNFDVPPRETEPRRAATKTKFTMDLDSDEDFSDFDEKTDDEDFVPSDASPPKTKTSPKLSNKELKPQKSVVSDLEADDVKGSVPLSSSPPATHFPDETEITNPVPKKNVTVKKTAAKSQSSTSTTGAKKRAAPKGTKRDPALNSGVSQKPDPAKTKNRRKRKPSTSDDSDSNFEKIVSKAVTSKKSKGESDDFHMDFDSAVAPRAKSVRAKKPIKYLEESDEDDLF
Method: The compound MA_AuPr clearly targets topoisomerase II if the statistical analysis of the NCI data for a range of drugs shown in FIG. 13 is correct. MA_AuPr was therefore assayed for its action against topoisomerase II in vitro using TopoGEN's standard protocol over a wide range of test agent concentrations (0.005 to 500 μM) in order to obtain direct experimental proof for the apparent cellular target of the compound to ensure that a fundamental understanding of the mechanism of action of this new class of Au(III) compounds exists. These experiments were performed by the company TopoGEN and at the University of Central Florida. The DNA cleavage experiments were performed in vitro using purified topoisomerase I and II enzymes and supercoiled plasmid DNA as the substrate. The controls that were used in the experiment were linear marker DNA as well as reactions without the gold(III) complex and high concentrations of VP16. The compound VP16 (etoposide) is a commercially available DNA intercalator chemotherapeutic agent, widely used in the treatment of lung and testicular cancers as well as lymphomas. The choice of VP16 as a control is based on the fact that it is a poor topoisomerase II inhibitor, but is a powerful topoisomerase II poison which arrests the enzyme's cycle at the ternary drug-enzyme-DNA cleavage complex stage, leading to observation of linear DNA fragments upon SDS denaturation of the enzyme (i.e., work-up). Comparison of the VP16 results with the results of MA_AuPr would therefore give a good indication of whether the gold(III) chelate is an inhibitor or a poison.
Lane 1 of the gel (FIG. 14) is the control experiment with only supercoiled plasmid DNA present. The control contains no topoisomerase II and so the DNA supercoiled structure cannot be relaxed, as the topoisomerase II enzyme would usually do. […] At a higher concentration of the test agent (50 μM), both supercoiled plasmid DNA and linear cleavage products are observed. […] At very high concentrations (>500 μM), MA_AuPr behaves exclusively as a catalytic inhibitor of the enzyme.
The role of gold(III) in the efficacy of the compound was determined by modifying the structure of MA_AuPr by replacing the Au(III) cation with Pd(II) to afford MA_PdPr (the isoelectronic square planar coordination complex of known structure and geometry^31) and carrying out the DNA relaxation assay with topoisomerase II as before. The metal-free ligand (MA_H2PrLig) was tested under identical conditions to confirm that the mechanism of action is related to the intact structure of the metal chelate.

[8] = test system: 3LL tumor (Lewis lung carcinoma); experiment: 3LL tumor growth in black mice

C1=NCCCN=Cc2ccc[n]2[Au+][n]2cccc21.[Cl-] [MA_AuPr, 2,2′-{propane-1,3-diylbis[nitrilo(E)methylylidene]}bis(pyrrol-1-ido)gold(III) chloride]
Cytotoxicity [1]: active | fraction of cancer cell lines equivalently or more susceptible than to cisplatin ([2]; 60 human cancer cell lines): ca. 25% | CC50 ([2]; mean over 60 human cancer cell lines, 50% cell death, read-out: LC50 (the source's name)): 49 µM | GI50 ([2]; mean over 60 human cancer cell lines, 50% growth inhibition): 7 µM | TGI (concentration for total growth inhibition) ([2]; mean over 60 human cancer cell lines, 100% (total) growth inhibition, read-out: TGI or IC50): 20 µM | increase in concentration from 50% growth inhibition to 50% cell kill ([2]; on average over the full 60 cell lines): 7 fold | growth inhibition activity relative to cisplatin, on average ([2]; plot of −log(GI50/M) versus cisplatin, FIG. 10): 95% | Genotoxicity [3]: not genotoxic; also recorded: Negative | hydrolysis [4]: did not show hydrolysis | Microsomal clearance t1/2 [5]: t1/2 < 10 min | one-dose screening result [6]: leukemia, breast, and colon cancer cell lines are inherently more susceptible | concentration at which compound behaves exclusively as catalytic inhibitor [7]: > 500 µM | action on topoisomerase II ([7]; compared with VP-16 (etoposide)): both a poison and a catalytic topoisomerase II inhibitor | concentration of catalytic inhibition of topoisomerase II ([7]; supercoiled plasmid DNA not relaxed): 50 µM | concentration at which topoisomerase II poisoning (DNA cleavage induction) is observed ([7]; supercoiled plasmid DNA, linear cleavage products): 0.5 µM | in vivo performance relative to cisplatin ([8]; 3LL tumors, 20 days): about 43% | reduction of 3LL tumor growth rate relative to control ([8]; after 20 days, 20 μmol/kg twice weekly): about 33%
